The values that follow come from PubChem BioAssay AID256 (DTP/NCI, 2004).

In this assay the test system is CD2F1 mice, L1210 leukemia ip, survival T/C. Nature of the assay: NCI In Vivo Anticancer Drug Screen. Data for tumor model L1210 Leukemia (intraperitoneal) in CD2F1 (CDF1) mice. Particulars: higher = longer survival. A digest of the protocol: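 Vehicle-treated tumor-bearing mice served as controls (C) for compound-treated mice (T). Reported figure is T divided by C.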

The mark [1] stands for this setting: endpoint: mean survival time, dose: 100.0 mg/kg/injection, schedule: Q04DX003 (ip), vehicle: saline with Tween-80.
The mark [2] stands for this setting: endpoint: mean survival time, dose: 200.0 mg/kg/injection, schedule: Q04DX003 (ip), vehicle: saline with Tween-80.
The mark [3] stands for this setting: endpoint: mean survival time, dose: 400.0 mg/kg/injection, schedule: Q04DX003 (ip), vehicle: saline with Tween-80.
[4] abbreviates: endpoint: mean survival time, dose: 3.13 mg/kg/injection, schedule: Q01DX009 (ip), vehicle: saline with Tween-80.
Where [5] appears, read: endpoint: mean survival time, dose: 6.25 mg/kg/injection, schedule: Q01DX009 (ip), vehicle: saline with Tween-80.
Where [6] appears, read: endpoint: mean survival time, dose: 100.0 mg/kg/injection, schedule: Q01DX009 (ip), vehicle: saline with Tween-80.
Where [7] appears, read: endpoint: mean survival time, dose: 200.0 mg/kg/injection, schedule: Q01DX009 (ip), vehicle: saline with Tween-80.
Setting [8] is: endpoint: mean survival time, dose: 400.0 mg/kg/injection, schedule: Q01DX009 (ip), vehicle: saline with Tween-80.
Where [9] appears, read: endpoint: mean survival time, dose: 100.0 mg/kg/injection, schedule: Q04DX002 (ip), vehicle: saline with Tween-80.
Where [10] appears, read: endpoint: mean survival time, dose: 200.0 mg/kg/injection, schedule: Q04DX002 (ip), vehicle: saline with Tween-80.
Where [11] appears, read: endpoint: mean survival time, dose: 50.0 mg/kg/injection, schedule: Q04DX002 (ip), vehicle: saline with Tween-80.

“And” between values parts separate entries of the source, which are not always exact repeats. Identical values can stand only once. Inconclusive results and toxic doses are left out.

Regarding `N#CC12C(=N)CCC1C1CC2C2C3C=CC(C3)C12` (stereo not given), the T/C is 96 % of control under setting [1], 96 % of control under setting [2] and 95 % of control under setting [3].
In the case of `COC1CC2C[CH]([Hg][Cl])C1C2` (stereo not given), the T/C reads like this: (endpoint: mean survival time, dose: 0.75 mg/kg/injection, schedule: Q01DX009 (ip), vehicle: saline) 106 % of control; (endpoint: mean survival time, dose: 1.5 mg/kg/injection, schedule: Q01DX009 (ip), vehicle: saline) 106 % of control; (endpoint: mean survival time, dose: 3.0 mg/kg/injection, schedule: Q01DX009 (ip), vehicle: saline) 103 % of control; under setting [4], 97 % of control; under setting [5], 103 % of control.
Consider `COc1ccccc1N/N=C1/CCCNC1=O`, for which the T/C was 98 % of control under setting [6], 101 % of control under setting [7] and 95 % of control under setting [8].
Take `CCCCSC(=O)Nc1ccccc1`: the T/C under setting [9] is 95 % of control; the T/C under setting [10] is 92 % of control; the T/C (endpoint: mean survival time, dose: 400.0 mg/kg/injection, schedule: Q04DX002 (ip), vehicle: saline with Tween-80) was 92 % of control.
As to `COC(=N)/C(C#N)=N/C1OCC(O)C(O)C1O` (stereo not given), the T/C is 101 % of control (endpoint: mean survival time, dose: 12.5 mg/kg/injection, schedule: Q01DX005 (ip), vehicle: other); 102 % of control (endpoint: mean survival time, dose: 25.0 mg/kg/injection, schedule: Q01DX005 (ip), vehicle: other); 102 % of control (endpoint: mean survival time, dose: 50.0 mg/kg/injection, schedule: Q01DX005 (ip), vehicle: other); 102 % of control (endpoint: mean survival time, dose: 100.0 mg/kg/injection, schedule: Q01DX005 (ip), vehicle: other); 101 % of control (endpoint: mean survival time, dose: 200.0 mg/kg/injection, schedule: Q01DX005 (ip), vehicle: other).
`CCCCC(CC)C(=O)N1CCOCC1` (stereo not given): the T/C under setting [6] is 96 % of control, the T/C under setting [7] was 92 % of control and the T/C under setting [8] was 86 % of control.
As for `CCC(O)(c1ccccc1)C(O)(CC)c1ccccc1` (stereo not given), the T/C under setting [11] was 96 % of control and the T/C under setting [9] was 86 % of control.
With `c1cc2c3c(c1)nc(CCCc1nc4cccc5c4n1CCC5)n3CCC2`, the T/C was 103 % of control (endpoint: mean survival time, dose: 25.0 mg/kg/injection, schedule: Q01DX009 (ip), vehicle: saline with Tween-80); 96 % of control (endpoint: mean survival time, dose: 50.0 mg/kg/injection, schedule: Q01DX009 (ip), vehicle: saline with Tween-80); 94 % of control under setting [6].
Take `CCOc1c(F)ccc(F)c1-c1c(F)ccc(F)c1OCC`: the T/C was 98 % of control under setting [1], 95 % of control under setting [2] and 106 % of control under setting [3].
On to `COc1ccc(-c2ncn(-c3ccc(S(=O)(=O)O)cc3)c2-c2ccc(OC)cc2)cc1`, for which the T/C reads like this: (endpoint: mean survival time, dose: 100.0 mg/kg/injection, schedule: Q04DX003 (ip), vehicle: Klucel (hydroxypropylcellulose) (HPC)) 95 % of control; (endpoint: mean survival time, dose: 200.0 mg/kg/injection, schedule: Q04DX003 (ip), vehicle: Klucel (hydroxypropylcellulose) (HPC)) 95 % of control; (endpoint: mean survival time, dose: 400.0 mg/kg/injection, schedule: Q04DX003 (ip), vehicle: Klucel (hydroxypropylcellulose) (HPC)) 102 % of control.
Consider `[NH-]S(=O)(=O)O.[NH-]S(=O)(=O)O.[NH2-].[NH2-].[Pt+4]`, for which the T/C by setting is: (endpoint: mean survival time, dose: 10.0 mg/kg/injection, schedule: Q04DX003 (ip), vehicle: saline with Tween-80) 95 % of control; (endpoint: mean survival time, dose: 20.0 mg/kg/injection, schedule: Q04DX003 (ip), vehicle: saline with Tween-80) 97 % of control; (endpoint: mean survival time, dose: 40.0 mg/kg/injection, schedule: Q04DX003 (ip), vehicle: saline with Tween-80) 97 % of control.
Consider `BrC/C(=N\N1CCCCCC1)c1ccc(Br)cc1`, for which the T/C is 94 % of control (endpoint: mean survival time, dose: 100.0 mg/kg/injection, schedule: Q01DX001 (ip), vehicle: saline); 92 % of control (endpoint: mean survival time, dose: 200.0 mg/kg/injection, schedule: Q01DX001 (ip), vehicle: saline); 92 % of control (endpoint: mean survival time, dose: 400.0 mg/kg/injection, schedule: Q01DX001 (ip), vehicle: saline).
In the case of `Nc1nc(N)c2nc(CNc3ccc(C(=O)NCCCC(=O)O)cc3)cnc2n1` (tested in a mixture with another compound), the T/C (endpoint: mean survival time, dose: 1.0 mg/kg/injection, schedule: Q01DX009 (ip), vehicle: Klucel (hydroxypropylcellulose) (HPC)) was 97 % of control; the T/C (endpoint: mean survival time, dose: 5.0 mg/kg/injection, schedule: Q01DX009 (ip), vehicle: Klucel (hydroxypropylcellulose) (HPC)) is 102 % of control; the T/C (endpoint: mean survival time, dose: 10.0 mg/kg/injection, schedule: Q01DX009 (ip), vehicle: Klucel (hydroxypropylcellulose) (HPC)) is 108 % of control; the T/C (endpoint: mean survival time, dose: 20.0 mg/kg/injection, schedule: Q01DX009 (ip), vehicle: Klucel (hydroxypropylcellulose) (HPC)) was 102 % of control.
For `Cc1cc([N+](=O)[O-])ccc1P(=O)(O)O`, where the note is “endpoint: mean survival time, dose: 50.0 mg/kg/injection, schedule: Q01DX009 (ip), vehicle: saline”, the T/C was 88 % of control.
In the case of `COc1ccc(OC)c(/C=C/c2cc3ccccc3c[n+]2C)c1`, the T/C reads like this: under setting [4], 94 % of control; under setting [5], 102 % of control; (endpoint: mean survival time, dose: 12.5 mg/kg/injection, schedule: Q01DX009 (ip), vehicle: saline with Tween-80) 105 % of control.
Consider `COC(=O)C1(C)CCCC2(C)C1CCC13C2CC1C1(C(C)C)OC31` (stereo not given), for which the T/C runs as follows: under setting [1], 89 % of control; under setting [2], 92 % of control.
Turning to `O=C(Nc1ccccn1)C(O)C(O)C(O)C(O)CO` (stereo not given), the T/C was 96 % of control (endpoint: mean survival time, dose: 12.5 mg/kg/injection, schedule: Q04DX003 (ip), vehicle: saline with Tween-80); 101 % of control (endpoint: mean survival time, dose: 25.0 mg/kg/injection, schedule: Q04DX003 (ip), vehicle: saline with Tween-80); 89 % of control (endpoint: mean survival time, dose: 50.0 mg/kg/injection, schedule: Q04DX003 (ip), vehicle: saline with Tween-80).
For the compound `Nc1nc(Br)nc2c1ncn2C1CC(O)C(CO)O1` (stereo not given), the T/C is 120 % of control (endpoint: median survival time, dose: 3.8 mg/kg/injection, schedule: Q03HX009 (ip), vehicle: saline); 152 % of control (endpoint: median survival time, dose: 10.0 mg/kg/injection, schedule: Q03HX024 (ip), vehicle: saline); 163 % of control (endpoint: median survival time, dose: 15.0 mg/kg/injection, schedule: Q03HX009 (ip), vehicle: water); 164 % of control and 174 % of control (endpoint: median survival time, dose: 20.0 mg/kg/injection, schedule: Q03HX024 (ip), vehicle: saline); 195 % of control (endpoint: median survival time, dose: 30.0 mg/kg/injection, schedule: Q03HX009 (ip), vehicle: suspension in saline); 237 % of control (endpoint: median survival time, dose: 30.0 mg/kg/injection, schedule: Q03HX009 (ip), vehicle: water). Also, the T/C was 329 % of control (endpoint: median survival time, dose: 30.0 mg/kg/injection, schedule: Q03HX024 (ip), vehicle: saline); 728 % of control (endpoint: median survival time, dose: 40.0 mg/kg/injection, schedule: Q03HX024 (ip), vehicle: saline); 121 % of control (endpoint: median survival time, dose: 53.0 mg/kg/injection, schedule: Q03DX003 (ip), vehicle: saline); 243 % of control (endpoint: median survival time, dose: 60.0 mg/kg/injection, schedule: Q03HX009 (ip), vehicle: suspension in saline); 221 % of control (endpoint: median survival time, dose: 60.0 mg/kg/injection, schedule: Q03HX009 (ip), vehicle: water); 118 % of control (endpoint: median survival time, dose: 80.0 mg/kg/injection, schedule: Q03DX003 (ip), vehicle: saline). For the same compound, the T/C is 122 % of control (endpoint: median survival time, dose: 120.0 mg/kg/injection, schedule: Q03DX003 (ip), vehicle: saline) and 193 % of control (endpoint: median survival time, dose: 120.0 mg/kg/injection, schedule: Q03HX009 (ip), vehicle: suspension in saline).
Consider `Cc1ccc(C(=O)NC2C(=O)NC(C(C)C)C(=O)N3CCCC3C(=O)N(C)CC(=O)N(C)C(C(C)C)C(=O)OC2C)c2c1Oc1c(c(C(=O)NC3C(=O)NC(C(C)C)C(=O)N4CCCC4C(=O)N(C)CC(=O)N(C)C(C(C)C)C(=O)OC3C)c3nc(-c4ccccc4)c(=O)oc3c1C)N2` (stereo not given), for which the T/C is, setting by setting: (endpoint: median survival time, dose: 0.06 mg/kg/injection, schedule: Q01DX009 (ip), vehicle: water) 112 % of control; (endpoint: median survival time, dose: 0.12 mg/kg/injection, schedule: Q01DX009 (ip), vehicle: water) 122 % of control; (endpoint: median survival time, dose: 0.25 mg/kg/injection, schedule: Q01DX009 (ip), vehicle: water) 117 % of control.
Consider `CC1=C(C)C(C(=O)O)C1C(=O)O` (stereo not given), for which the T/C (endpoint: mean survival time, dose: 100.0 mg/kg/injection, schedule: Q01DX001 (ip), vehicle: saline with Tween-80) was 88 % of control and the T/C (endpoint: mean survival time, dose: 200.0 mg/kg/injection, schedule: Q01DX001 (ip), vehicle: saline with Tween-80) was 97 % of control.
For `CCCCOC(=O)Cc1c(C)[nH]c2ccc(-c3ccccc3)cc12`, the T/C under setting [11] is 102 % of control, the T/C under setting [9] was 102 % of control and the T/C under setting [10] is 97 % of control.
`O/N=C/C=N/O.O/N=C/C=N/O.[Pd]`: the T/C under setting [5] is 100 % of control.
